Results published in patent publication US11447505B1, “Pyrrolo[2,3-b]pyridine compounds and their use in the treatment of cancer” (priority 2017, dated 2022).

Legend:
ROCK2 = ROCK2 (Homo sapiens (Human), UniProt O75116); experiment: ROCK2 kinase assay (IMAP fluorescence polarization); format: biochemical; conditions: 1 μM ATP; read-out: ROCK2 Average Ki
ROCK1 = ROCK1 (Homo sapiens (Human), UniProt Q13464); conditions: read-out: ROCK1 Average Ki; 1 μM ATP
Description: MRCKα, MRCKβ, ROCK1 and ROCK2 assays were performed using an IMAP fluorescence polarization assay format (Molecular Devices Inc.). […] Typically, dose response analyses were performed over concentration ranges from 0.005-100 μM. […] After 30 min incubation to allow binding reagent to bind phosphorylated peptide, fluorescence polarization was measured on a Tecan Saphire^2 plate reader at excitation (470 nm) and emission (530 nm) wavelengths.

MRCKβ = MRCKβ (Homo sapiens (Human), UniProt Q9Y5S2); experiment: MRCKβ kinase assay (IMAP fluorescence polarization); format: biochemical; conditions: 1 μM ATP; read-out: MRCK-B Average Ki
Description: MRCKα, MRCKβ, ROCK1 and ROCK2 Kinase Assays

ROCK2, sequence (O75116 whole entry): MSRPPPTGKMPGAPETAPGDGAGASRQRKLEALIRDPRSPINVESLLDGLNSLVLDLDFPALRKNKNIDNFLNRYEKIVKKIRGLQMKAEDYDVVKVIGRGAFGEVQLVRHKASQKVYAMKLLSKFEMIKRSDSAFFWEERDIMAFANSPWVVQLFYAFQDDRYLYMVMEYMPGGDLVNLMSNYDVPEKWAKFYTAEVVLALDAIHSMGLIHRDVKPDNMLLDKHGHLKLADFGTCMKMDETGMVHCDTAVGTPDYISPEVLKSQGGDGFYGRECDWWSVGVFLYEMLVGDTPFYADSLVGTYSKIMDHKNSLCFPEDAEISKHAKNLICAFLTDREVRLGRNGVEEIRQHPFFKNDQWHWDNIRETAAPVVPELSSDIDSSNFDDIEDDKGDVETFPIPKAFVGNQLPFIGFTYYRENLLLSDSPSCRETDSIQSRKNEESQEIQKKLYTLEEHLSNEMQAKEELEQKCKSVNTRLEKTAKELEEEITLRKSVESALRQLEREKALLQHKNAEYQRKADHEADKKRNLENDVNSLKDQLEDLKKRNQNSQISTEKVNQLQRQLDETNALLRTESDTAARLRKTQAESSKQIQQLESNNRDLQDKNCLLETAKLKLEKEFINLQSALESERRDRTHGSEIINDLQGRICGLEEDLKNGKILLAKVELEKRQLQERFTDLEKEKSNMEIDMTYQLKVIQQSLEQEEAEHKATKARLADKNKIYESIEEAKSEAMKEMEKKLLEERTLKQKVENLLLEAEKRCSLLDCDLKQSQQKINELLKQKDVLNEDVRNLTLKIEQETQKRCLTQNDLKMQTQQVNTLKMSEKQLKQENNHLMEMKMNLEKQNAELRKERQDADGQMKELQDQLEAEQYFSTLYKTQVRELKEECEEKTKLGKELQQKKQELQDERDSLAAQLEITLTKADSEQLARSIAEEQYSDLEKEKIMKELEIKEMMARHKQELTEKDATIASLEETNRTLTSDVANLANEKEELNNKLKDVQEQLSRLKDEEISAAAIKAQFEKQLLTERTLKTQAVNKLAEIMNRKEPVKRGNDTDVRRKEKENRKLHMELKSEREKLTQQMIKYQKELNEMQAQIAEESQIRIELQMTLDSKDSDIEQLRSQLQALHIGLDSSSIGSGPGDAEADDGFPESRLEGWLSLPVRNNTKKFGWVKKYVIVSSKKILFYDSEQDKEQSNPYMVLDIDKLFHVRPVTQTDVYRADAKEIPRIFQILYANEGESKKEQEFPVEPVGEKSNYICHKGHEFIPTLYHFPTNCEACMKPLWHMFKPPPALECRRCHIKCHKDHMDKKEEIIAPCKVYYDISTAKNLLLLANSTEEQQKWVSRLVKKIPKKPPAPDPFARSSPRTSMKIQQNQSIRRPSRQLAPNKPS
ROCK1, sequence (Q13464 2-1354 limits assumed): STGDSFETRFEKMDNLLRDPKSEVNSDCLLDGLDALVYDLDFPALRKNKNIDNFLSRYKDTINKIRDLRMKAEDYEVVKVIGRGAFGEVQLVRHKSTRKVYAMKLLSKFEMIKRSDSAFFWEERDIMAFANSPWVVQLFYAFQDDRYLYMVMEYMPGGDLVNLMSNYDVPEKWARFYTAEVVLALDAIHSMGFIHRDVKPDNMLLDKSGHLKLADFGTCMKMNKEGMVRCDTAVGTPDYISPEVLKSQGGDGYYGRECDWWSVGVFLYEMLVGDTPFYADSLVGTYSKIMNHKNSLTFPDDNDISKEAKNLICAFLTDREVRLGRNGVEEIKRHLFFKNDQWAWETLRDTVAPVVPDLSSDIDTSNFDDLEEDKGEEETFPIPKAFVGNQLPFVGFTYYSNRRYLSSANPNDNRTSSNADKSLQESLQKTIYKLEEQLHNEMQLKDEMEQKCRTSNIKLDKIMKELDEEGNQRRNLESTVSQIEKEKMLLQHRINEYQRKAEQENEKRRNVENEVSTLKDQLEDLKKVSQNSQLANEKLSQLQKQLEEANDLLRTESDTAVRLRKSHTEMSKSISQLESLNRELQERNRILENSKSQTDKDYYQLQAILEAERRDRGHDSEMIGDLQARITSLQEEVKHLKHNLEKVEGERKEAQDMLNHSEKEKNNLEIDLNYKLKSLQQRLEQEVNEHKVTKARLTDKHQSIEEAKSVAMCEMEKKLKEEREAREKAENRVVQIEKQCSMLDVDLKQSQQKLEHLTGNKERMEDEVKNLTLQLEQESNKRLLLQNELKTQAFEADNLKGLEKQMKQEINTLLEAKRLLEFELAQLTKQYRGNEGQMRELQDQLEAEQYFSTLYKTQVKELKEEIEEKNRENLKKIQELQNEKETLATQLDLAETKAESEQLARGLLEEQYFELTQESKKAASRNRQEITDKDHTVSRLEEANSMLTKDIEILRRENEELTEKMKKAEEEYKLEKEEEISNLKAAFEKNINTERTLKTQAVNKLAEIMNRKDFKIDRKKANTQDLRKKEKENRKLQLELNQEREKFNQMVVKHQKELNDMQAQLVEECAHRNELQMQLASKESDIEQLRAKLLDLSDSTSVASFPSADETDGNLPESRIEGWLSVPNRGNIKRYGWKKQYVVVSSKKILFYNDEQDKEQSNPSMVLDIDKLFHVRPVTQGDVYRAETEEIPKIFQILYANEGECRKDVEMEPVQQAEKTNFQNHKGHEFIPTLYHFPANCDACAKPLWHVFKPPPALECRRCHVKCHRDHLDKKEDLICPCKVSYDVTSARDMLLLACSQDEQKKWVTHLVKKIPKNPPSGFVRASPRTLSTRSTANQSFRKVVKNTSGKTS

| Compound | Ki (ROCK2) | Ki (ROCK1) | Ki (MRCKβ) |
| --- | --- | --- | --- |
| 4-[4-(1-piperidyl)-1H-pyrrolo[2,3-b]pyridin-3-yl]pyridin-2-amine [Example E9] | 1.25 nM | 1.5 nM | 0.886 nM |
| 4-morpholino-1H-pyrrolo[2,3-b]pyridine-3-carbonitrile [Example E33] | 127 nM | 196 nM | 87.1 nM |
| CN[C@H]1CCCN(c2ccnc3[nH]cc(-c4cncnc4)c23)[C@H]1C (relative stereo) [Example E179, cis-N,2-dimethyl-1-(3-pyrimidin-5-yl-1H-pyrrolo[2,3-b]pyridin-4-yl)piperidin-3-amine] | 1090 nM | 1290 nM | 128 nM |
| CN(C1CC1)[C@H]1CCCN(c2ccnc3[nH]cc(-c4cncnc4)c23)C1 (stereo in doubt) [Example E80] | 228 nM | 499 nM | 8.3 nM |
| Cc1cnc2[nH]cc(-c3cncnc3)c2c1N1CCCCC1 [Example E1, 5-methyl-4-(1-piperidyl)-3-pyrimidin-5-yl-1H-pyrrolo[2,3-b]pyridine] | 6500 nM | 15000 nM | 64.6 nM |
| Nc1cccc(-c2c[nH]c3nccc(N4CCCCC4)c23)n1 [Example E3, 6-[4-(1-piperidyl)-1H-pyrrolo[2,3-b]pyridin-3-yl]pyridin-2-amine] | 13.8 nM | 28.6 nM | 39.9 nM |
| c1cc(-c2c[nH]c3nccc(N4CCCCC4)c23)ncn1 [Example E4, 4-(1-piperidyl)-3-pyrimidin-4-yl-1H-pyrrolo[2,3-b]pyridine] | 19.7 nM | 28.3 nM | 15.5 nM |
| CNc1cc(-c2c[nH]c3nccc(N4CCCCC4)c23)ccn1 [Example E5, N-methyl-4-[4-(1-piperidyl)-1H-pyrrolo[2,3-b]pyridin-3-yl]pyridin-2-amine] | 22.5 nM | 40.8 nM | 3.02 nM |
| N#Cc1cc(-c2c[nH]c3nccc(N4CCCCC4)c23)cnc1N [Example E7, 2-amino-5-[4-(1-piperidyl)-1H-pyrrolo[2,3-b]pyridin-3-yl]pyridine-3-carbonitrile] | 245 nM | 501 nM | 357 nM |
| N#Cc1cncc(-c2c[nH]c3nccc(N4CCCCC4)c23)c1 [Example E8, 5-[4-(1-piperidyl)-1H-pyrrolo[2,3-b]pyridin-3-yl]pyridine-3-carbonitrile] | 3270 nM | 10000 nM | 541 nM |
| Nc1ccc(-c2c[nH]c3nccc(N4CCCCC4)c23)cn1 [Example E10, 5-[4-(1-piperidyl)-1H-pyrrolo[2,3-b]pyridin-3-yl]pyridin-2-amine] | 45.7 nM | 74.9 nM | 51.8 nM |
| Fc1cncc(-c2c[nH]c3nccc(N4CCCCC4)c23)c1 [Example E11, 3-(5-fluoro-3-pyridyl)-4-(1-piperidyl)-1H-pyrrolo[2,3-b]pyridine] | 374 nM | 755 nM | 42.3 nM |
| Clc1cncc(-c2c[nH]c3nccc(N4CCCCC4)c23)c1 [Example E12, 3-(5-chloro-3-pyridyl)-4-(1-piperidyl)-1H-pyrrolo[2,3-b]pyridine] | 574 nM | 2150 nM | 366 nM |
| CNC(=O)c1cncc(-c2c[nH]c3nccc(N4CCCCC4)c23)c1 [Example E13, N-methyl-5-[4-(1-piperidyl)-1H-pyrrolo[2,3-b]pyridin-3-yl]pyridine-3-carboxamide] | 1740 nM | 10000 nM | 378 nM |
| c1cc(-c2c[nH]c3nccc(N4CCCCC4)c23)cnn1 [Example E14, 4-(1-piperidyl)-3-pyridazin-4-yl-1H-pyrrolo[2,3-b]pyridine] | 6.5 nM | 9 nM | 9.4 nM |
| c1cnnc(-c2c[nH]c3nccc(N4CCCCC4)c23)c1 [Example E15, 4-(1-piperidyl)-3-pyridazin-3-yl-1H-pyrrolo[2,3-b]pyridine] | 362 nM | 482 nM | 56.5 nM |
| c1cnc(-c2c[nH]c3nccc(N4CCCCC4)c23)cn1 [Example E16, 4-(1-piperidyl)-3-pyrazin-2-yl-1H-pyrrolo[2,3-b]pyridine] | 159 nM | 504 nM | 61.8 nM |
| Cc1csc(-c2c[nH]c3nccc(N4CCCC5(CCCCN5)C4)c23)n1 (stereo not drawn) [Example E158, 2-[4-(1,8-diazaspiro[5.5]undecan-8-yl)-1H-pyrrolo[2,3-b]pyridin-3-yl]-4-methyl-thiazole] |  | 100000 nM | 0.36 nM |
| Cc1nccc(-c2c[nH]c3nccc(N4CCCC5(CCCCN5)C4)c23)n1 (stereo not drawn) [Example E160, 8-[3-(2-methylpyrimidin-4-yl)-1H-pyrrolo[2,3-b]pyridin-4-yl]-1,8-diazaspiro[5.5]undecane] |  | 100000 nM | 2.76 nM |
| c1cc(-c2c[nH]c3nccc(N4CCC5(CCCN5)C4)c23)cnn1 (stereo not drawn) [Example E161, 4-(1,7-diazaspiro[4.4]nonan-7-yl)-3-pyridazin-4-yl-1H-pyrrolo[2,3-b]pyridine] |  | 34.1 nM | 0.933 nM |
| c1cc(-c2c[nH]c3nccc(N4CCC5(CCCCN5)C4)c23)cnn1 (stereo not drawn) [Example E162, 2-(3-pyridazin-4-yl-1H-pyrrolo[2,3-b]pyridin-4-yl)-2,6-diazaspiro[4.5]decane] |  | 16.9 nM | 0.219 nM |
| c1cc(-c2c[nH]c3nccc(N4CCC5(CCNC5)C4)c23)cnn1 (stereo not drawn) [Example E164, 4-(2,7-diazaspiro[4.4]nonan-2-yl)-3-pyridazin-4-yl-1H-pyrrolo[2,3-b]pyridine] |  | 0.448 nM | 1.12 nM |
| N#Cc1c[nH]c2nccc(N3CCCC4(CCCCN4)C3)c12 (stereo not drawn) [Example E165, 4-(1,8-diazaspiro[5.5]undecan-8-yl)-1H-pyrrolo[2,3-b]pyridine-3-carbonitrile] |  | 174 nM | 0.249 nM |
| Cc1ncc(-c2c[nH]c3nccc(N4CCCC5(CCCCN5)C4)c23)cn1 (stereo not drawn) [Example E166, 8-[3-(2-methylpyrimidin-5-yl)-1H-pyrrolo[2,3-b]pyridin-4-yl]-1,8-diazaspiro[5.5]undecane] |  | 100000 nM | 0.786 nM |
| Cc1noc(C)c1-c1c[nH]c2nccc(N3CCCC4(CCCCN4)C3)c12 (stereo not drawn) [Example E167, 4-[4-(1,8-diazaspiro[5.5]undecan-8-yl)-1H-pyrrolo[2,3-b]pyridin-3-yl]-3,5-dimethyl-isoxazole] |  | 100000 nM | 108 nM |
| c1cc(-c2c[nH]c3nccc(N4CCC[C@]5(CCCCN5)C4)c23)cnn1 [Example E173, (6R)-8-(3-pyridazin-4-yl-1H-pyrrolo[2,3-b]pyridin-4-yl)-1,8-diazaspiro[5.5]undecane] |  | 294 nM | 1.18 nM |
| N#Cc1c[nH]c2nccc(N3CCC4(CCCN4)C3)c12 (stereo not drawn) [Example E185, 4-(1,7-diazaspiro[4.4]nonan-7-yl)-1H-pyrrolo[2,3-b]pyridine-3-carbonitrile] |  | 13.6 nM | 1.92 nM |
| c1cc(-c2c[nH]c3nccc(O[C@@H]4CCCNC4)c23)ncn1 [Example E213, 3-pyrimidin-4-yl-4-[[(3R)-3-piperidyl]oxy]-1H-pyrrolo[2,3-b]pyridine] |  | 3.84 nM | 0.144 nM |
| N-[(3S)-1-(3-pyridazin-4-yl-1H-pyrrolo[2,3-b]pyridin-4-yl)-3-piperidyl]acetamide [Example E205] |  | 113 nM | 4.43 nM |
